Reference: patent publication US20080033040A1, “Methods And Compositions For Screening Involving Endothelial Cells Under Shearing Conditions” (priority 2004, published 2008)
Several values for one entry are separate records, joined by “and”; a condition that tells them apart may be missing. Equal entries are not always repeated. Where two headings read alike, the source gives them in different places.

Legend:
PAEC [1] = test: Determination of intracellular superoxide by DHE, static culture (Example 2); assay type: cell-based, Porcine; settings: for % of cells with fluorescent nuclei, hydrogen peroxide exposed sample with inhibitor: 60 μM H2O2; for % of cells with fluorescent nuclei, hydrogen peroxide exposed sample with inhibitor / % cells with fluorescent nuclei, control sample cultured with inhibitor: apocynin 0.25 μM; for % cells with fluorescent nuclei, control sample cultured with inhibitor: no H2O2
Method: Adenoviral-mediated gene transfer was conducted by infection of endothelial cells (85-95% confluence, University of Iowa Cardiovascular Research Center Cell Culture Facility) as previously described (Fang et al., 1998). Ad5CMVSOD2, Ad5CMVeNOS, and Ad5CMVeGFP were acquired from the University of Iowa Gene Transfer Vector Core (REF); Ad5CMVeGFP was used as a negative control. Porcine aortic endothelial cells were incubated with 125 PFU/cell MnSOD/eNOS/eGFP adenovirus in serum-free M199. To improve the efficiency of adenoviral uptake, the adenoviral stock was incubated for 30 minutes prior to addition to cell cultures (Kossila et al., 2002). Infected PAEC were incubated under standard conditions. After 3 hours, the virus-containing solution was removed, samples were washed with serum-free M199, and M199 supplemented with 1% Penicillin-Streptomycin and 2% FBS was added. After 45 hours of incubation (48 hours after initiation of infection) cells were prepared for experimentation.
Incubation continued for an additional 30 minutes with 2 μM dihydroethidium (Miller et al., 1998; Carter et al., 1994) (DHE, Molecular Probes). […] Images were captured using a Zeiss Axiovert S100 fluorescent microscope. Images were collected at a standard exposure of 4500 ms.
Image analysis was conducted with Slidebook 4 Imaging Software (company). Statistical analyses were conducted using the Student's t-Test assuming unequal variance. Values are reported as mean±standard error of the mean (SEM).

PAEC [2] = test: L-NAME inhibition of eNOS, superoxide by DHE, static; assay type: cell-based, Porcine
Method: In order to ascertain the role of eNOS in endothelial cell superoxide production, the presence of superoxide was probed in the presence of L-NAME. […] After incubation, 2 μM DHE was added to each sample and incubated for 30 minutes. […] Image analysis was conducted with Slidebook 4 Imaging Software (company). Statistical analyses were conducted using the Student's t-Test assuming unequal variance. Values are reported as mean±standard error of the mean (SEM).

[3] = system: Porcine aortic endothelial cells (PAEC); settings: shear 24.4 ml/min (2.2 dynes/cm2), 100 μM H2O2, 1.5 hours
Method: The flow system provided for oscillatory, laminar flow across the sample. […] Due to these factors, an increase in concentration to 100 μM H2O2 was necessary for experimentation under shearing conditions.
An Immunetics flow cell (Li et al., 1996) was prepared by first flushing the fluid path with deionized water and then phenyl red free M199. After flushing, 50 ml of the circulating medium was added and allowed to perfuse for 5 minutes while warming to 37° C. PAEC were then placed in the flow cell and the flow cell was secured to the microscope stage. Endothelial cells were maintained at 37° C. by fluid flow through a water bath (Precision, Winchester, Va.), at a flow rate of 24.4 ml/min (2.2 dynes/cm2), for 1.5 hours under 100 μM H2O2 in circulating medium. The PAEC not exposed to H2O2 were subjected to the same flow rate in serum free and phenyl red free M199 without H2O2. […] The experiment was conducted under constant imaging, with images being captured at 0, 15, 30, 60, and 90 minutes. […] All fluorescent images were acquired with phenyl red free media to eliminate interference of phenyl red and FBS in fluorescent imaging.

PAEC [4] = assay type: cell-based, Porcine
Method: An Immunetics cell adhesion chamber (Cambridge, Mass.) was utilized to determine PAEC behavior under shearing conditions. […] PAEC were exposed to a constant flow rate of 24.4 ml/min (2.2 dynes/cm^2) for 1.5 hours. Maintenance of PAEC at 37° C. was achieved by using a fluid reservoir contained in a constant temperature water bath (Precision). Challenged PAEC were exposed to 100 μM H2O2 in serum-free and phenyl red free M199; control PAEC were exposed to serum-free and phenyl red free M199 without H2O2.
After 1 hour of incubation, 2 μM dihydroethidium was added to the media reservoir.
Hydroethidium was used to examine superoxide production of infected and non-infected PAEC under H2O2 induced oxidative stress. PAEC on glass slides were subjected to laminar flow at 24.4 ml/min (2 dynes/cm^2). The circulating fluid contained 2 μM dihydroethidium as a marker for superoxide production.

PAEC [5] = settings: 500 μM H2O2, 1 hour
Method: PAEC were cultured and infected as previously described. Forty-eight hours after infection, PAEC were incubated for 1 hour under 500 μM H2O2 in serum-free M199; control groups were incubated in serum-free M199. […] After incubation, 3 μM propidium iodide (PI) was added to each sample and incubated for 8 minutes. Samples were then washed with serum-free M199 and imaged at an exposure of 2500 ms. All fluorescent images were acquired in phenyl-red free media.

[6] = system: Porcine aortic endothelial cells (PAEC); settings: static
PAEC [7] = test: Nitric oxide production (Greiss assay, DAF-FM diacetate staining); assay type: cell-based, Porcine; settings: H2O2 exposure, limited length of experimentation
From the text: Nitric oxide production was quantified via Greiss assay and intracellular staining with DAF-FM diacetate.

PAEC [8] = test: Determination of eNOS couple state with ascorbic acid, superoxide by DHE, static; assay type: cell-based, Porcine; settings: 60 μM H2O2, 1 mM ascorbic acid
Method: In order to ascertain the role of the coupled state of eNOS in endothelial cell superoxide production, the presence of superoxide was probed in the presence of ascorbic acid. […] After incubation, 2 μM DHE was added to each sample and incubated for 30 minutes.

SMILES: COc1cc(C(C)=O)ccc1O [apocynin, Apocynin]
- effect on superoxide production (PAEC [1]; apocynin 0.5 mM): minimal effects
- % of cells with fluorescent nuclei, hydrogen peroxide exposed sample with inhibitor (PAEC [1]; static): 35.1±2.0%
- % cells with fluorescent nuclei, control sample cultured with inhibitor (PAEC [1]; static): 14.2±1.3%

SMILES: OO [H2O2, hydrogen peroxide]
- % cells with fluorescent nuclei, challenged non-inhibited group (PAEC [2]; 60 μM H2O2, no L-NAME): 23.8±3.8%
- % of PAEC exposed to H2O2 demonstrating intracellular superoxide [3]: 49.5±3.3%
- % of cells with fluorescent nuclei, challenged PAEC (non-infected) (PAEC [4]): 50.3±4.1%
- fold increase in percent of superoxide producing cells, non-infected control vs H2O2 stressed (PAEC [4]): 30 fold
- percent of cells with ruptured cellular membranes (PAEC [5]): ten
- percent propidium iodide positive cells, challenged PAEC (PAEC [5]): more than ninety
- % of PAEC exposed to H2O2 demonstrating intracellular superoxide ([6]; 3 μM H2O2, 1.5 hour exposure, 2.0 μM DHE): 1.2±0.2%
- % of PAEC found to produce intracellular superoxide ([6]; 30 μM H2O2, 1.5 hour exposure, 2.0 μM DHE): 77.1±5.5%
- % of PAEC exhibiting fluorescent nuclei ([6]; 1 mM H2O2): 76.1±6.8%
- cell membrane integrity of PAEC ([6]; increasing H2O2 concentration, most notably at 1 mM): loss in cell membrane integrity in a dose dependant manner
- NO production (DAF-AM acetate intracellular staining) (PAEC [7]): no significant increases
- fold increase in percent of superoxide producing cells, control vs H2O2 stressed (PAEC [1]; static culture): 10 fold
- % of cells having fluorescent nuclei (PAEC [1]; static, H2O2 challenged PAEC (60 μM H2O2)): 51.8±1.1%

SMILES: CC(C(=O)O)c1ccc(-c2ccccc2)c(F)c1 (stereo not shown) [flurbiprofen]
- % of cells with fluorescent nuclei, hydrogen peroxide exposed sample with inhibitor (PAEC [1]; static): 46.8±1.4%
- % cells with fluorescent nuclei, control sample cultured with inhibitor (PAEC [1]; static): 3.9±0.4%

SMILES: COC(=O)[C@@H](N)CCCNC(=N)N[N+](=O)[O-] [L-NAME, N^G-nitro-L-arginine methyl ester]
- % cells with fluorescent nuclei, control with eNOS inhibition (PAEC [2]; no H2O2, 1 mM L-NAME): 2.2±0.5% and 2.9±0.3%

SMILES: O=C1O[C@H]([C@@H](O)CO)C(O)=C1O [ascorbic acid, Ascorbic Acid]
- superoxide production in presence of ascorbic acid (PAEC [8]): almost completely inhibited

SMILES: Oc1ncnc2[nH]ncc12 [allopurinol]
- % of cells with fluorescent nuclei, hydrogen peroxide exposed sample with inhibitor (PAEC [1]; static): 35.6±1.3%
- % cells with fluorescent nuclei, control sample cultured with inhibitor (PAEC [1]; static): 4.1±0.4%
